Like-named read-outs stand apart in the source and are kept apart here.
Key:
Test in all cases: Checkerboard microdilution MIC of antibiotic with peptide
E. coli IH3080 = format: cell-based; conditions: Escherichia coli, no peptide (None, 0)
Procedure: (§1) The general assay medium was L broth (pH7.2) which contained 10 g of tryptone (Difco Laboratories, Detroit, Mich.), 5 g of yeast extract (Oxoid Ltd., Hampshire, UK) and 5 g of sodium chloride per liter. After an incubation time of 18 hours at 37° C., the growth of each microtiter well is measured with a Titerteck Multiscan spectrophotometer at 405 nm. Before reading, the spectrophotometer was blanked with corresponding uninoculated drug-containing media. The minimum inhibitory concentration (MIC) of an antibiotic was defined as the lowest concentration of the antibiotic expressed in mg/l which reduced the growth of the target bacteria by ≥90% (MIC90).

E. cloa 12645 = format: cell-based; conditions: Enterobacter cloacae, no peptide (None, 0)
Procedure: as §1

Kl. pneumoniae 12854 = format: cell-based
Procedure: as §1

Ps. aeroginosa PAO1 = format: cell-based; conditions: Pseudomonas aeruginosa, no peptide (None, 0)
Procedure: as §1

S. typhi SH5014 = format: cell-based, Salmonella typhimurium
Procedure: as §1

[1] = Experiment IV, read-out: MIC Erythrom.
[2] = Experiment II, read-out: MIC Fusidic a.
[3] = Experiment III, read-out: MIC Novobiocin
[4] = Experiment I, read-out: MIC Rifampin

Q: How did the MIC (E. coli IH3080; [1]) turn out when `CC[C@H]1OC(=O)[C@H](C)[C@@H](O[C@H]2C[C@@](C)(OC)[C@@H](O)[C@H](C)O2)[C@H](C)[C@@H](O[C@@H]2O[C@H](C)C[C@H](N(C)C)[C@H]2O)[C@](C)(O)C[C@@H](C)C(=O)[C@H](C)[C@@H](O)[C@]1(C)O` [Erythrom., erythromycin] was run?
A: 30 µg/mL

Q: What about the MIC (E. cloa 12645; [1]) of the same compound?
A: > 100 µg/mL

Q: What about the MIC (Kl. pneumoniae 12854; Klebsiella pneumoniae, 12854, read-out: MIC Erythrom.) of the same compound?
A: > 100 µg/mL

Q: And the MIC (Ps. aeroginosa PAO1; [1])?
A: 100 µg/mL

Q: What about the MIC (S. typhi SH5014; read-out: MIC Erythromycin.) of the same compound?
A: 100 µg/mL

Q: With `CC(=O)O[C@H]1C[C@@]2(C)[C@@H](C[C@@H](O)[C@H]3[C@@]4(C)CC[C@@H](O)[C@@H](C)[C@@H]4CC[C@@]32C)/C1=C(\CCC=C(C)C)C(=O)O` [Fusidic a., fusidic acid] as the compound, how does the MIC (E. coli IH3080; [2]) read?
A: 300 µg/mL

Q: What about the MIC (E. cloa 12645; [2]) of the same compound?
A: > 300 µg/mL

Q: What about the MIC (Kl. pneumoniae 12854; Klebsiella pneumoniae, 12854, read-out: MIC Fusidic a.) of the same compound?
A: > 300 µg/mL

Q: And the MIC (Ps. aeroginosa PAO1; [2])?
A: > 300 µg/mL

Q: What about the MIC (S. typhi SH5014; read-out: MIC Fusidic a.) of the same compound?
A: > 300 µg/mL

Q: Which results are given for `CO[C@@H]1[C@@H](OC(N)=O)[C@@H](O)[C@H](Oc2ccc3c(O)c(NC(=O)c4ccc(O)c(CC=C(C)C)c4)c(=O)oc3c2C)OC1(C)C` [Novobiocin, novobiocin]?
A: MIC (E. coli IH3080; [3]): 30 µg/mL; MIC (E. cloa 12645; [3]): > 30 µg/mL; MIC (Kl. pneumoniae 12854; Klebsiella pneumoniae, 12854, read-out: MIC Novobiocin): 30 µg/mL; MIC (Ps. aeroginosa PAO1; [3]): > 30 µg/mL; MIC (S. typhi SH5014; read-out: MIC Novobiocin): 30 µg/mL

Q: How did the MIC (E. coli IH3080; [4]) turn out when `CO[C@H]1/C=C/O[C@@]2(C)Oc3c(C)c(O)c4c(O)c(c(/C=N/N5CCN(C)CC5)c(O)c4c3C2=O)NC(=O)/C(C)=C\C=C\[C@H](C)[C@H](O)[C@@H](C)[C@@H](O)[C@@H](C)[C@H](OC(C)=O)[C@@H]1C` [Rifampin, rifampin] was run?
A: 10 µg/mL

Q: What about the MIC (E. cloa 12645; [4]) of the same compound?
A: 10 µg/mL

Q: What about the MIC (Kl. pneumoniae 12854; Klebsiella pneumoniae, 12854, read-out: MIC Rifampin) of the same compound?
A: 10 µg/mL

Q: What about the MIC (Ps. aeroginosa PAO1; [4]) of the same compound?
A: > 10 µg/mL

Q: What about the MIC (S. typhi SH5014; read-out: MIC Rifampin) of the same compound?
A: 10 µg/mL
